Measurements taken from ChEMBL document CHEMBL1201862, “PubChem BioAssay data set” (2004).
Counter-ions that a name gives are not always drawn. The source made the active and inactive calls.

Experiments:
[1] = biological target: T1, Tyrosine-protein phosphatase non-receptor type 22 (Homo sapiens, UniProt Q9Y2R2); test: PTPN22 enzyme inhibitors – biochemical, fluorescence, LYP catalytic domain, selectivity assay for LMPTP inhibitor project, dose response (AID 652006); type: functional; conditions: read-out: IC50_Mean
T1 sequence (Q9Y2R2 whole entry): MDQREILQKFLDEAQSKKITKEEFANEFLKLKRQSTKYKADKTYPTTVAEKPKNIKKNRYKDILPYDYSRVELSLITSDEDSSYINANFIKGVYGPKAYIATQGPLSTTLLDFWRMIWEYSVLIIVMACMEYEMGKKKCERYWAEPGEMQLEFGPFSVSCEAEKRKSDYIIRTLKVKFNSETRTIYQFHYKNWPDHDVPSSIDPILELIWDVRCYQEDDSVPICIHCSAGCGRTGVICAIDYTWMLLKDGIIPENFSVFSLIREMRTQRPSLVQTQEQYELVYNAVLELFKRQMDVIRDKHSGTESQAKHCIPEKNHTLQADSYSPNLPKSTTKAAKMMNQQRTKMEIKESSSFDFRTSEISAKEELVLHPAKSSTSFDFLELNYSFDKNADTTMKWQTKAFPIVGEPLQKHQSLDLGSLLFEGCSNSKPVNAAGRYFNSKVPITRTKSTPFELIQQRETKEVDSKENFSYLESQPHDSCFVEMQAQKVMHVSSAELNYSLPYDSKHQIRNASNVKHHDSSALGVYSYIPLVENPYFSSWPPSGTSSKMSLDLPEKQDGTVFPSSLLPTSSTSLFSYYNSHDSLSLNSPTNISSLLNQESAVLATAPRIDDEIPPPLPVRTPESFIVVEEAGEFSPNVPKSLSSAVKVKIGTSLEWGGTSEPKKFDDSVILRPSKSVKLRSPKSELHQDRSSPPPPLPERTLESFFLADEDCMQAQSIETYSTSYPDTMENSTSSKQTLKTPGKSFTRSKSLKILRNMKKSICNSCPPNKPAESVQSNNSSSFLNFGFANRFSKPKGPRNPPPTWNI

[2] = biological target: T2, Low molecular weight phosphotyrosine protein phosphatase (Homo sapiens, UniProt P24666); type: functional; conditions: read-out: IC50_Mean;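 further: Dose-response confirmation assay measuring inhibition of LMPTP enzyme activity by fluorescence intensity read-out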
T2 sequence (P24666 whole entry): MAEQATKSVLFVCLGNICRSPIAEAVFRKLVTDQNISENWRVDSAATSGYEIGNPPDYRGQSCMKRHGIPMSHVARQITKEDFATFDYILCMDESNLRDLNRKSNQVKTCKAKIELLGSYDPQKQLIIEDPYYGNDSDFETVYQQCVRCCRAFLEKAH

[3] = biological target: T3, Carboxy-terminal domain RNA polymerase II polypeptide A small phosphatase 1 (Homo sapiens, UniProt Q9GZU7); test: CTDSP1 inhibitors, concentration-response, biochemical, absorbance readout, ultra-high-throughput screen actives (AID 540297); type: functional
T3 sequence (Q9GZU7 whole entry): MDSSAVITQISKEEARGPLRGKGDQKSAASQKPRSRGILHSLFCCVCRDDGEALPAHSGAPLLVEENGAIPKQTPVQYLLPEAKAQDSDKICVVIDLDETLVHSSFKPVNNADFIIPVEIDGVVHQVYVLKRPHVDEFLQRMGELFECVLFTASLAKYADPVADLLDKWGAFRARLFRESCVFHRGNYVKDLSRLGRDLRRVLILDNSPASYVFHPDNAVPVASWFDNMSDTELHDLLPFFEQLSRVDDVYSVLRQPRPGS

[4] = biological target: Arf-GAP with SH3 domain, ANK repeat and PH domain-containing protein 1 (Homo sapiens, UniProt Q9ULH1); type: functional;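 further: biochemical fluorescence polarization dose–response screen measuring inhibition of ASAP1; ASAP1 GAP domain stimulating GTP hydrolysis by truncated human ARF1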
[5] = fluconazole-exposed Candida albicans growth modulators – fluorescence, retest, confirmation (AID 2467); type: functional, cell-based
[6] = NIH-3T3 fibroblast cytotoxicity, dose response, cytotoxicity control, cell-based, fluorescence, Alamar Blue, secondary assay (AID 2327); type: functional;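 further: NIH-3T3 mouse fibroblasts cultured with fluconazole at 8 µg/mL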
[7] = biological target: T4, Mitochondrial peptide methionine sulfoxide reductase (Bos taurus, UniProt P54149); test: Absorbance-based biochemical high throughput dose response assay for activators of Methionine sulfoxide reductase A (MsrA).; type: functional
T4 sequence (P54149 whole entry): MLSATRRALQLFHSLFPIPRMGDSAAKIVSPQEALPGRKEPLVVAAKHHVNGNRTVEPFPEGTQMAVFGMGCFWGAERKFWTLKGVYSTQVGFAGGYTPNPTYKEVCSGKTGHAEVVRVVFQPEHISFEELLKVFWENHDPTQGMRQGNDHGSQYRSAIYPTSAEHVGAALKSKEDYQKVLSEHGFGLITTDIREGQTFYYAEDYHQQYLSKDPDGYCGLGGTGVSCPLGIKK

[8] = nonselective StAR promoter luciferase inhibitors – cell-based, luminescence, luciferase reporter, counter-screen for LRH-1 inverse agonist project, dose response (AID 651969); type: functional
[9] = biological target: Nuclear receptor subfamily 5 group A member 2 (Homo sapiens, UniProt O00482); type: functional, cell-based;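 further: HEK293T cells transfected with LRH-1 and a StAR promoter luciferase reporter; potency for inhibitors that lower LRH-1 driven reporter light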
Steroidogenic factor 1 = Steroidogenic factor 1 (Homo sapiens, UniProt Q13285); test: Counterscreen for inverse agonists of the liver receptor homolog-1 (LRH-1; NR5A2): Luminescence-based cell-based high throughput dose response assay to identify inverse agonists of the Steroidogenic Factor 1 Nuclear Receptor (SF1; NR5A1).; type: functional
[10] = biological target: T5, Small ubiquitin-related modifier 1 (Homo sapiens, UniProt P63165); test: SUMO1 protein interaction blockers, potency – biochemical, fluorescence polarization, uHTS hits, dose response (AID 624382); type: functional; conditions: read-out: IC50_Mean
[11] = biological target: T5, Small ubiquitin-related modifier 1; test: SUMO1 protein-protein binding blockers, potency – biochemical, FRET, dose response (AID 624383); type: functional; conditions: read-out: IC50_Mean
[12] = biological target: T6, DNA repair protein RAD52 homolog (Homo sapiens, UniProt P43351); type: functional, biochemical
T6 sequence (P43351 whole entry): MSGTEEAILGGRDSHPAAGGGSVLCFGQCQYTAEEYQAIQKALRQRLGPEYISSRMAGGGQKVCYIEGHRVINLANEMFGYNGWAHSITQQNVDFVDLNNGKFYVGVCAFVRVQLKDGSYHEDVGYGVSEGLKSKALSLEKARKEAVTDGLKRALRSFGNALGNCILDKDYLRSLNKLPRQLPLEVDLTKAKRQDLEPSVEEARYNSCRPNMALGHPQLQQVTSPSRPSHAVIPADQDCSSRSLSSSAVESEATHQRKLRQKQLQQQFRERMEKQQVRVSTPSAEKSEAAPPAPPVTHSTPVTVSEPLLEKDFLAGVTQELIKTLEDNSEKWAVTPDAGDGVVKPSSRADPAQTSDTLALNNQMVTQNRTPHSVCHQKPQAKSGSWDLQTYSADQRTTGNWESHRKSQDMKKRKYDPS

[13] = biological target: DNA repair and recombination protein RAD54-like (Homo sapiens, UniProt Q92698); test: RAD54 Holliday junction migration blockers – biochemical, fluorescence, cherry-picked samples, dose series, confirmation (AID 651657); type: functional
[14] = biological target: T7, Sentrin-specific protease 1 (Homo sapiens, UniProt Q9P0U3); test: Dose response confirmation of small molecule inhibitors of the catalytic domain of the SUMO protease, SENP1 in a FRET assay.; type: functional; conditions: read-out: IC50_Mean
[15] = biological target: T7, Sentrin-specific protease 1; test: SENP1 catalytic domain blockers, concentration series – biochemical, kinetic FRET, dose response (AID 651697); type: functional; conditions: read-out: IC50_Mean
[16] = bead-based luminescence quenchers, dual-tagged ARNT – biochemical, AlphaScreen, cherry-pick, artefact control for ARNT-TACC3 interaction inhibitor project, dose response (AID 651705); type: functional;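 further: AlphaScreen bead proximity signal that flags compounds interfering with the detection technology; potency reflects signal decrease which marks the compound as an assay artifact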
[17] = biological target: Broad substrate specificity ATP-binding cassette transporter ABCG2 (Homo sapiens, UniProt Q9UNQ0); test: blockers of JC-1 export by ABCG2 – Ig-MXP3 cells, flow cytometry, dose response (AID 1690); type: functional
Protein skinhead-1 = biological target: T8, Protein skinhead-1 (Caenorhabditis elegans, UniProt P34707); type: functional
T8 sequence (P34707 whole entry): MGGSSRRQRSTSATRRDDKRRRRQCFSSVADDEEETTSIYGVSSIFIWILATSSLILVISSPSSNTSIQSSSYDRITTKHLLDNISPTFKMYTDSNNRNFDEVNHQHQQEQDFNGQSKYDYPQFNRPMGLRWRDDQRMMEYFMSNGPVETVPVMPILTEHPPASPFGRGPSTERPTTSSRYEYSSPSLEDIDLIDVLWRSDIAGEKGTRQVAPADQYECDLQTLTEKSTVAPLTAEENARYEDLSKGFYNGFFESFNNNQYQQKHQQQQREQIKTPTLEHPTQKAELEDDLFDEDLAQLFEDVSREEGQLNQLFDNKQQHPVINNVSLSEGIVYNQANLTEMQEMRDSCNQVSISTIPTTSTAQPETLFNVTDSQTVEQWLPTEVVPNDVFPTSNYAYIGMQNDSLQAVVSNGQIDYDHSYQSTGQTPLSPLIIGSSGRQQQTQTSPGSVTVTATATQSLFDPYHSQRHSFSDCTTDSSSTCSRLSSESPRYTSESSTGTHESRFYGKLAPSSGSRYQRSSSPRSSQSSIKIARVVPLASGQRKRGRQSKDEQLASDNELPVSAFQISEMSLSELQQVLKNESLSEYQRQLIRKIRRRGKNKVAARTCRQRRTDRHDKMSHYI

H4 = test: Luminescence Cell-Based Dose Response HTS to Identify Activators of 5'UTR Stem-Loop Driven Prion Protein mRNA Translation in H4 Neuroglioblastoma Cells. [Related pubchem assays: 1829 (Project Summary), 1814 (Primary HTS)]; type: functional; conditions: Homo sapiens
[18] = biological target: ATP-dependent translocase ABCB1 (Homo sapiens, UniProt P08183); test: inhibition of P-gp mediated JC-1 efflux – Jurkat-DNR cells, flow cytometry, dose response (AID 1689); type: functional
[19] = Luminescence Cell-Based Dose Response to Identify Activators of 5'UTR Stem-Loop Driven Prion Protein mRNA Translation in H4-C Neuroglioblastoma Cells. [Related pubchem assays: 1829 (Project Summary), 1814 (Primary HTS)]; type: functional
[20] = Luminescence Cell-Based Dose Confirmation to Identify Activators of 5'UTR Stem-Loop Driven Alpha-Synuclein mRNA Translation in H4 Neuroglioblastoma Cells. [Related pubchem assays: 1829 (Project Summary), 1814 (Primary HTS)]; type: functional
[21] = Luminescence Cell-Based Dose Response HTS to Identify Activators of Luciferase Translation or Activity in H4 […] Cells. [Related pubchem assays: 1829 (Project Summary), 1814 (Primary HTS)]; type: functional
[22] = Luminescence Cell-Based Dose Response to Identify Activators of Luciferase Translation or Activity in H4-C Neuroglioblastoma Cells. [Related pubchem assays: 1829 (Project Summary), 1814 (Primary HTS)]; type: functional
[23] = biological target: T9, Probable nicotinate-nucleotide adenylyltransferase (Staphylococcus aureus (strain N315), UniProt P65502); type: functional, Staphylococcus aureus subsp. aureus N315;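 on IC50 Mean: confirmatory dose-response retesting of NadD inhibitor hits first found in an ultra-high-throughput screen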
[24] = biological target: DNA (cytosine-5)-methyltransferase 1 (Homo sapiens, UniProt P26358); test: inhibition of DNA methylation by DNMT1 – biochemical, fluorescent molecular beacon, confirmation (AID 602386); type: functional
[25] = biological target: T9, Probable nicotinate-nucleotide adenylyltransferase; type: functional, Staphylococcus aureus subsp. aureus N315; conditions: read-out: IC50_Mean
[26] = biological target: Induced myeloid leukemia cell differentiation protein Mcl-1 (Homo sapiens, UniProt Q07820); type: functional
Induced myeloid leukemia cell differentiation protein Mcl-1, sequence (Q07820 whole entry): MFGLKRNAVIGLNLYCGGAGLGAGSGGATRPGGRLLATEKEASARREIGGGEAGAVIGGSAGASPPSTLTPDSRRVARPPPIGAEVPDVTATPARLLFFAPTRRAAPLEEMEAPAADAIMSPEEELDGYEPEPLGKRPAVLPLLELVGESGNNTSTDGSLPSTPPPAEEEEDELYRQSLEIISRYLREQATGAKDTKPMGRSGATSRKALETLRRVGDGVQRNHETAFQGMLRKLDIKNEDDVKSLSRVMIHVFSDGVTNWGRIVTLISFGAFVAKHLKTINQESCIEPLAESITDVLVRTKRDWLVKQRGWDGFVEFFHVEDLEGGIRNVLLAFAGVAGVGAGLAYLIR

T5 sequence (P63165 whole entry): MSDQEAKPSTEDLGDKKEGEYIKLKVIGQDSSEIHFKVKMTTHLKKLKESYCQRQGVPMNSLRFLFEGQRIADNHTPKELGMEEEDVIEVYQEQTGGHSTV
T9 sequence (P65502 whole entry): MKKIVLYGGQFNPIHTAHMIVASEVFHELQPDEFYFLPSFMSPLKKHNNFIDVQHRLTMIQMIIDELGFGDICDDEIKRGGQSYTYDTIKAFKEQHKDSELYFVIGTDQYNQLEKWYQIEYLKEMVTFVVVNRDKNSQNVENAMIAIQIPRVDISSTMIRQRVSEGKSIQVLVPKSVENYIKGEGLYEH
T7 sequence (Q9P0U3 whole entry, the tested form may be a part): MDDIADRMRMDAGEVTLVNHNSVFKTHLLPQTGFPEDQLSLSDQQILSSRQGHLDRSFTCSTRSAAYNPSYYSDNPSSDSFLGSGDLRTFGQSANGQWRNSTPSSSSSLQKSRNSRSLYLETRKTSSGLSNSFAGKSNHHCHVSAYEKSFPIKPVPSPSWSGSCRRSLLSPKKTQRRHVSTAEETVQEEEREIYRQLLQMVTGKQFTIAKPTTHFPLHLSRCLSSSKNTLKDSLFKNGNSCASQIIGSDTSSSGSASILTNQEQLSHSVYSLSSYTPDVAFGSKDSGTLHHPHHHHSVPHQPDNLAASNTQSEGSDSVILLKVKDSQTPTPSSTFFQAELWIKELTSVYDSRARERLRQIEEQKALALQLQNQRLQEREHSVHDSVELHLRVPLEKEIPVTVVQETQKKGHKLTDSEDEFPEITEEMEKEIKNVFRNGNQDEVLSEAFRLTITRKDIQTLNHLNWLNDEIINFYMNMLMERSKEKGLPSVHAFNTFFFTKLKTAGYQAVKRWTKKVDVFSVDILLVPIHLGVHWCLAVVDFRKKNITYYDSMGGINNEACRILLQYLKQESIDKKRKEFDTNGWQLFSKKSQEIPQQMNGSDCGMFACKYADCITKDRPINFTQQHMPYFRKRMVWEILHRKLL
Nuclear receptor subfamily 5 group A member 2, sequence (O00482 whole entry): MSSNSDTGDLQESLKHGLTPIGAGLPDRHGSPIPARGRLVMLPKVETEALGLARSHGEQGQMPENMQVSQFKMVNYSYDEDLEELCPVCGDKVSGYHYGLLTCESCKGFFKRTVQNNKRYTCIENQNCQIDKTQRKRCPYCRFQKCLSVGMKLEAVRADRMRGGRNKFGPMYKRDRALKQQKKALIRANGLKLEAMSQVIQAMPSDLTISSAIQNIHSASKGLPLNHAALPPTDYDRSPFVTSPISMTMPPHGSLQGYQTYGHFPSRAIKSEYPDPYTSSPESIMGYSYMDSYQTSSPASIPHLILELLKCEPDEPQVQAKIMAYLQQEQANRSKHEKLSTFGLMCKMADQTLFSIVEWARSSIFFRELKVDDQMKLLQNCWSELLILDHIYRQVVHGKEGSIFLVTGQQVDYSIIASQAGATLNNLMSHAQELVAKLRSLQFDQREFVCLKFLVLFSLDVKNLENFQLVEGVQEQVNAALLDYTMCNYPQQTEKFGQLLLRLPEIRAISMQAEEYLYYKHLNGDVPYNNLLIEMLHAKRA
DNA repair and recombination protein RAD54-like, sequence (Q92698 whole entry, the tested form may be a part): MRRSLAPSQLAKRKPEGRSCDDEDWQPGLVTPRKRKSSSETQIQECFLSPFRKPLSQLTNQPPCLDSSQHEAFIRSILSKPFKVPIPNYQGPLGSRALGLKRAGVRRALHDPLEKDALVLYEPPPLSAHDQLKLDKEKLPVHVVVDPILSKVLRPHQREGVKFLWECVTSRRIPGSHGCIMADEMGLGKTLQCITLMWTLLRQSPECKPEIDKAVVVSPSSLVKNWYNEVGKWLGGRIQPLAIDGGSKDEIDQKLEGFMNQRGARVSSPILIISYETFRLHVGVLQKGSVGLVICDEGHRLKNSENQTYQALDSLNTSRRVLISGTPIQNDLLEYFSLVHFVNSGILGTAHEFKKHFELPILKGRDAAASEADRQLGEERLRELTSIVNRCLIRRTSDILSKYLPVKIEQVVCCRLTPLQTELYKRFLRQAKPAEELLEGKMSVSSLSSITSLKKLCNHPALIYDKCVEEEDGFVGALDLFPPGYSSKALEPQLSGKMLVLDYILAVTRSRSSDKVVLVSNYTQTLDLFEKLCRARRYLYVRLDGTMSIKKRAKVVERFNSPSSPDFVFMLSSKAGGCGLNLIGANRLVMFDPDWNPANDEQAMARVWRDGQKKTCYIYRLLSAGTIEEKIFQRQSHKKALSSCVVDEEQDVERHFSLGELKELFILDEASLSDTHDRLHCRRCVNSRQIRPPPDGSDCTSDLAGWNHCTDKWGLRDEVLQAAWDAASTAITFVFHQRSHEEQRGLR
Arf-GAP with SH3 domain, ANK repeat and PH domain-containing protein 1, sequence (Q9ULH1 whole entry, the tested form may be a part): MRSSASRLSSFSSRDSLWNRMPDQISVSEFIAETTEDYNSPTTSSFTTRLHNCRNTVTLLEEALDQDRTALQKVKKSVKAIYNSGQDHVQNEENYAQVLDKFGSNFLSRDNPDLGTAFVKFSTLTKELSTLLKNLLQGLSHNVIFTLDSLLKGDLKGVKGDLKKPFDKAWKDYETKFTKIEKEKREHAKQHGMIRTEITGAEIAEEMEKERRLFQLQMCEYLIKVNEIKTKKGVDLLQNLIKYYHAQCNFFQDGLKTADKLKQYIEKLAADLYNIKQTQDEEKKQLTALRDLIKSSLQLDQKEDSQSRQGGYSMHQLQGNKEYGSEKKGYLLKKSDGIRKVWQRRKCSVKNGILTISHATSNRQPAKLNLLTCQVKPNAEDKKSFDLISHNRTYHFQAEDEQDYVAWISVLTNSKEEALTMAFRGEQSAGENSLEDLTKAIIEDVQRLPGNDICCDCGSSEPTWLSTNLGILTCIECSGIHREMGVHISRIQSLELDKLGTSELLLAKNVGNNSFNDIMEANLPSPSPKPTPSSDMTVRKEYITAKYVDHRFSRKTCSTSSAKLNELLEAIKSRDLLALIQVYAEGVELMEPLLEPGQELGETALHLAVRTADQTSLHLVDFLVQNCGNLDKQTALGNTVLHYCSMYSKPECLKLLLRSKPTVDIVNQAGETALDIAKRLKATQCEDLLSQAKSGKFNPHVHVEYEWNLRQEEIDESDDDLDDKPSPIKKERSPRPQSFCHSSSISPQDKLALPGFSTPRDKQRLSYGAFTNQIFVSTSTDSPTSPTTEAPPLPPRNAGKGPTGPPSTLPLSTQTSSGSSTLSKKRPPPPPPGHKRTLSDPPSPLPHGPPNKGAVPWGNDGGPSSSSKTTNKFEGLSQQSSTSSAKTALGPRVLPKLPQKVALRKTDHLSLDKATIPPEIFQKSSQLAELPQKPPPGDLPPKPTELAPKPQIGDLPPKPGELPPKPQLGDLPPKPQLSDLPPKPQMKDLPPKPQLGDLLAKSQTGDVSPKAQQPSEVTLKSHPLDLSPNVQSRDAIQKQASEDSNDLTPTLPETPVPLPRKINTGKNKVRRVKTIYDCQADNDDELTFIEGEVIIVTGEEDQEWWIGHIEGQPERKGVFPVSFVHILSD
Broad substrate specificity ATP-binding cassette transporter ABCG2, sequence (Q9UNQ0 whole entry): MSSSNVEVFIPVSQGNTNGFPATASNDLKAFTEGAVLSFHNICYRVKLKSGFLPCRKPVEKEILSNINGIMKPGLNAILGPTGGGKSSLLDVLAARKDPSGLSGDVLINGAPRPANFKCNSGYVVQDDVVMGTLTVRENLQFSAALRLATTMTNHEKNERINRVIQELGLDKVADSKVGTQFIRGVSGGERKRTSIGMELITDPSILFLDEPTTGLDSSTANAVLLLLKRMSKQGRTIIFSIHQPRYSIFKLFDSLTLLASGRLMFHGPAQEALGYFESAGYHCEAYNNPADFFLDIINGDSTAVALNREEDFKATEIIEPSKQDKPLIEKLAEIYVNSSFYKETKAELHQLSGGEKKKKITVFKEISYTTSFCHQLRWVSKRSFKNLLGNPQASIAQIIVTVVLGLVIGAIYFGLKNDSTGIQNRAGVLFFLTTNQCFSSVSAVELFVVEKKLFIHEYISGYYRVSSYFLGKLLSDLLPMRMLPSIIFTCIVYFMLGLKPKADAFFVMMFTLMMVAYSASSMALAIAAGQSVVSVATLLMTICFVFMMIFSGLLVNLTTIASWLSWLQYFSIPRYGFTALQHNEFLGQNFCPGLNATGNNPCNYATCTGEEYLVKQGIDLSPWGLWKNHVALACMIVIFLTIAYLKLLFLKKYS
Steroidogenic factor 1, sequence (Q13285 whole entry): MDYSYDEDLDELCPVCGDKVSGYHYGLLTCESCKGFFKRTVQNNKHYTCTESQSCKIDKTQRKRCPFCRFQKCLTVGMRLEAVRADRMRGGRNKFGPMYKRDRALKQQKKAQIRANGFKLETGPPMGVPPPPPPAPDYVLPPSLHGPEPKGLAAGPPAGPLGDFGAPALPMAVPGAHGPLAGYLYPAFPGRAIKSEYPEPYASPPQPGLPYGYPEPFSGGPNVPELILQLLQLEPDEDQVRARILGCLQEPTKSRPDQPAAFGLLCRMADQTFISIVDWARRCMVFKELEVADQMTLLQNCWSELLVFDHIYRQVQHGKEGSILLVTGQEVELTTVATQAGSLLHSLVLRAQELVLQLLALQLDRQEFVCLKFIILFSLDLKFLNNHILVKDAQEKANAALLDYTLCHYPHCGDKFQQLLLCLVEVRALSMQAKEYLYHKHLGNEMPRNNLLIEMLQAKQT

With `COc1cccc2c1[C@@H]1CN(CCCCn3c(=O)[nH]c4c(sc5ncc(-c6ccccc6)nc54)c3=O)C[C@@H]1CO2` [FIDUXOSIN HYDROCHLORIDE] the IC50 [1] was 24.7 µM (inactive) and the IC50 [2] was 13.2 µM (active).

In the case of `COc1ccc2cc(C(=O)Nc3ccc(Cl)cc3)sc(=O)c2c1OC`, the IC50 [3] is reported as 3.51 µM (active) and the IC50 [4] is reported as 12.6 µM (inactive).

For `Cc1ccc(C(=O)NC(=S)NNC(=O)CC#N)cc1`, the EC50 [5] was > 38 µM (not active), the EC50 [6] was > 150 µM (inconclusive) and the EC50 [7] was > 104 µM (inactive).

With `Cc1cc(OCC(=O)NCc2cccnc2)c2c(C)c(C)c(=O)oc2c1` the IC50 [8] was 35.9 µM (inactive), the IC50 [9] was 2.88 µM (active) and the IC50 (Steroidogenic factor 1) was 2.35 µM (active).

For `O=C(COC(=O)c1nc(Cl)ccc1Cl)Nc1ccc2[nH]c(O)nc2c1`, the IC50 [10] was > 66.6 µM (inactive) and the IC50 [11] was 20.8 µM (inactive).

For `CN(C)CCCNc1c2c(nc3ccccc13)CCC2`, the AC50 [12] was 4.86 µM (active) and the AC50 [13] was 20.8 µM (active).

In the case of `C=CCOc1c(Br)cc(/C=C2/N=C(S)N(C(C)=O)C2=O)cc1OC`, the IC50 [14] is reported as 8.78 µM (active) and the IC50 [15] is reported as 7.01 µM (active).

With `CS(=O)(=O)c1cccc(-c2nnc(NC(=O)c3ccc(S(=O)(=O)N4CCCC4)cc3)o2)c1` the AC50 [16] was 113 µM (active).

With `O=[N+]([O-])c1ccccc1-c1nc(-c2ccc(Br)o2)no1` the EC50 [17] was 4.88 µM (active), the IC50 (Protein skinhead-1) was 69.1 µM (inactive) and the EC50 (H4) was > 120 µM (not active). The EC50 [18] was 28.2 µM (inactive), the EC50 [19] was 0.302 µM (active) and the EC50 [20] was 0.252 µM (active). The EC50 [21] was < 0.1 µM (active) and the EC50 [22] was 0.364 µM (active).

In the case of `Cn1c(N)c(C(=O)COC(=O)c2cc(-c3ccco3)nc3ccccc23)c(=O)n(C)c1=O`, the IC50 [23] is reported as 6.76 µM (active), the IC50 [24] is reported as 5.78 µM (active) and the IC50 [3] is reported as 2.52 µM (active). The IC50 [25] was 15.9 µM (active) and the IC50 [26] was 2.97 µM (active).
